Measured values: patent EP4667458A1 (Kanaph Therapeutics Inc., priority 2023, dated 2024)

Target: T1, KRAS^G12C::SOS1 (Homo sapiens, UniProt Q07889)
T1 sequence (Q07889 1-1333): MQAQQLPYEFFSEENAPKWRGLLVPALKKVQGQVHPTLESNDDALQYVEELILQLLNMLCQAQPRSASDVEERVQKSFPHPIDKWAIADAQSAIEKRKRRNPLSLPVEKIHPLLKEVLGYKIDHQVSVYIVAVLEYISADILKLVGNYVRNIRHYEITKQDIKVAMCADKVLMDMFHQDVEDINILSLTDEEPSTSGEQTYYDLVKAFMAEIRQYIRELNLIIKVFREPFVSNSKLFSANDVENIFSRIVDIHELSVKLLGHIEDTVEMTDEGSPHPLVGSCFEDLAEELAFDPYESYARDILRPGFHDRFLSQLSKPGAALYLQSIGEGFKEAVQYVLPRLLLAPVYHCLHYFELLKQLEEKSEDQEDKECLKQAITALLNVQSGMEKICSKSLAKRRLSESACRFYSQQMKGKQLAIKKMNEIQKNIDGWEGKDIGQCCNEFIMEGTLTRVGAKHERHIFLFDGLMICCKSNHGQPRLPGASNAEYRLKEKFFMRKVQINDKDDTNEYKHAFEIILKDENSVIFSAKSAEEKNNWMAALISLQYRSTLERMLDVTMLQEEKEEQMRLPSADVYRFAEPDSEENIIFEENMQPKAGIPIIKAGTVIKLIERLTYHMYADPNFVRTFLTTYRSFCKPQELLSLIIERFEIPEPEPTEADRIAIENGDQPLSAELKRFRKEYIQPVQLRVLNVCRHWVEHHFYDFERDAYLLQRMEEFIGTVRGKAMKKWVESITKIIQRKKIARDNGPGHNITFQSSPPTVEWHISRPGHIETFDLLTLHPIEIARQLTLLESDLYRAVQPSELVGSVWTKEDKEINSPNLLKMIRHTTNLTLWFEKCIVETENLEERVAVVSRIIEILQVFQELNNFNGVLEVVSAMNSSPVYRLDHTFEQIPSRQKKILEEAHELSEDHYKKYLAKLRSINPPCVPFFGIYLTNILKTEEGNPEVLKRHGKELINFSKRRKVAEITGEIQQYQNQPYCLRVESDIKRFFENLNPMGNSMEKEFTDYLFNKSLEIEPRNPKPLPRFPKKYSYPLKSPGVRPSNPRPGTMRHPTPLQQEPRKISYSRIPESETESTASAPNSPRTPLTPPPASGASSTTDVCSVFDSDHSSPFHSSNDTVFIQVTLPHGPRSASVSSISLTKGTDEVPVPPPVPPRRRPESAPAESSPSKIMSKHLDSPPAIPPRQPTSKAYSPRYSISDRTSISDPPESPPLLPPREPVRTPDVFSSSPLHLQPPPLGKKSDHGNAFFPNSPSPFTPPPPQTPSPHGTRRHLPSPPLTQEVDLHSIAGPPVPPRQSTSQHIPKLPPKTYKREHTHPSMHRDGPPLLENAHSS
Experiment: KRAS G12C::SOS1 protein-protein interaction (PPI) inhibition assay (HTRF binding kit)

IC50, < 1000 nM:
COc1ccc(F)c(-n2cc(C(=O)N[C@H](C)c3cc(N)cc(C(F)(F)F)c3)ccc2=O)c1 [Example 178, N-[(1R)-1-[3-amino-5-(trifluoromethyl)phenyl]ethyl]-1-(2-fluoro-5-methoxy-phenyl)-6-oxo-pyridine-3-carboxamide]
CNC(=O)c1cccc(-n2nc(C(=O)N[C@H](C)c3cc(N)cc(C(F)(F)F)c3)ccc2=O)c1 [Example 253, N-[(1R)-1-[3-amino-5-(trifluoromethyl)phenyl]ethyl]-1-[3-(methylcarbamoyl)phenyl]-6-oxo-pyridazine-3-carboxamide]
CNCc1cc(Cl)ccc1-c1ccc([C@@H](C)NC(=O)c2ccc(=O)n(-c3ccccc3F)n2)s1 [Example 281, N-[(1R)-1-[5-[4-chloro-2-(methylaminomethyl)phenyl]-2-thienyl]ethyl]-1-(2-fluorophenyl)-6-oxo-pyridazine-3-carboxamide]
CNCc1ccc(F)cc1-c1ccc([C@@H](C)NC(=O)c2ccc(=O)n(-c3cccc(-c4cnnn4C)c3)n2)s1 [Example 413]
Cc1ncccc1-c1cccc(-n2nc(C(=O)N[C@H](C)c3cc(N)cc(C(F)(F)F)c3)ccc2=O)c1 [Example 324, N-[(1R)-1-[3-amino-5-(trifluoromethyl)phenyl]ethyl]-1-[3-(2-methyl-3-pyridyl)phenyl]-6-oxo-pyridazine-3-carboxamide]
Cc1ncnn1-c1cccc(-n2nc(C(=O)N[C@H](C)c3cc(N)cc(C(F)(F)F)c3)ccc2=O)c1 [Example 211, N-[(1R)-1-[3-amino-5-(trifluoromethyl)phenyl]ethyl]-1-[3-(5-methyl-1,2,4-triazol-1-yl)phenyl]-6-oxo-pyridazine-3-carboxamide]
CNCc1cc(Cl)ccc1-c1ccc([C@@H](C)NC(=O)c2ccc(=O)n(-c3ccccc3F)c2)s1 [Example 282, N-[(1R)-1-[5-[4-chloro-2-(methylaminomethyl)phenyl]-2-thienyl]ethyl]-1-(2-fluorophenyl)-6-oxo-pyridine-3-carboxamide]
CNCc1ccsc1-c1cccc([C@@H](C)NC(=O)c2ccc(=O)n(-c3ccccc3F)n2)c1 [Example 294, 1-(2-fluorophenyl)-N-[(1R)-1-[3-[3-(methylaminomethyl)-2-thienyl]phenyl]ethyl]-6-oxo-pyridazine-3-carboxamide]
CNCc1ccc(Cl)cc1-c1ccc([C@@H](C)NC(=O)c2ccc(=O)n(-c3cccnc3F)c2)s1 [Example 277, N-[(1R)-1-[5-[5-chloro-2-(methylaminomethyl)phenyl]-2-thienyl]ethyl]-1-(2-fluoro-3-pyridyl)-6-oxo-pyridine-3-carboxamide]
C[C@@H](NC(=O)c1ccc(=O)n(-c2cccc(-c3nnco3)c2)n1)c1cc(N)cc(C(F)(F)F)c1 [Example 235, N-[(1R)-1-[3-amino-5-(trifluoromethyl)phenyl]ethyl]-1-[3-(1,3,4-oxadiazol-2-yl)phenyl]-6-oxo-1,6-dihydropyridazine-3-carboxamide]
C[C@@H](NC(=O)c1ccc(=O)n(-c2cccc(-c3cccnc3)c2)n1)c1cc(N)cc(C(F)(F)F)c1 [Example 338, N-[(1R)-1-[3-amino-5-(trifluoromethyl)phenyl]ethyl]-6-oxo-1-[3-(3-pyridyl)phenyl]pyridazine-3-carboxamide]
C[C@@H](NC(=O)c1ccc(=O)n(-c2ccc3cnn(C)c3c2)n1)c1cc(N)cc(C(F)(F)F)c1 [Example 236, N-[(1R)-1-[3-amino-5-(trifluoromethyl)phenyl]ethyl]-1-(1-methyl-1H-indazol-6-yl)-6-oxo-1,6-dihydropyridazine-3-carboxamide]
CNCc1ccccc1-c1ccc([C@@H](C)NC(=O)c2ccc(=O)n(-c3cnn(C)c3)n2)s1 [Example 278, N-[(1R)-1-[5-[2-(methylaminomethyl)phenyl]-2-thienyl]ethyl]-1-(1-methylpyrazol-4-yl)-6-oxo-pyridazine-3-carboxamide]
C[C@@H](NC(=O)c1nn(-c2cnn(C)c2)c(=O)c2ccsc12)c1cc(N)cc(C(F)(F)F)c1 [Example 316, N-[(1R)-1-[3-amino-5-(trifluoromethyl)phenyl]ethyl]-5-(1-methylpyrazol-4-yl)-4-oxo-thieno[2,3-d]pyridazine-7-carboxamide]
C[C@@H](NC(=O)c1ccc(=O)n(-c2cccc(-c3ccon3)c2)n1)c1cc(N)cc(C(F)(F)F)c1 [Example 376, N-[(1R)-1-[3-amino-5-(trifluoromethyl)phenyl]ethyl]-1-(3-isoxazol-3-ylphenyl)-6-oxo-pyridazine-3-carboxamide]
C[C@@H](NC(=O)c1ccc(=O)n(-c2ccc3nnn(C)c3c2)n1)c1cc(N)cc(C(F)(F)F)c1 [Example 238, N-[(1R)-1-[3-amino-5-(trifluoromethyl)phenyl]ethyl]-1-(1-methyl-1H-1,2,3-benzotriazol-6-yl)-6-oxo-1,6-dihydropyridazine-3-carboxamide]
C[C@@H](NC(=O)c1ccc(=O)n(-c2cccnc2)n1)c1cccc(C(F)(F)CO)c1F [Example 146, N-[(1R)-1-[3-(1,1-difluoro-2-hydroxy-ethyl)-2-fluoro-phenyl]ethyl]-6-oxo-1-(3-pyridyl)pyridazine-3-carboxamide]
C[C@@H](NC(=O)c1nn(-c2ccccc2)c(=O)cc1Cl)c1cc(N)cc(C(F)(F)F)c1 [Example 220, N-[(1R)-1-[3-amino-5-(trifluoromethyl)phenyl]ethyl]-4-chloro-6-oxo-1-phenyl-pyridazine-3-carboxamide]
CNCc1cc(F)c(Cl)cc1-c1ccc([C@@H](C)NC(=O)c2ccc(=O)n(-c3cccnc3F)n2)s1 [Example 399, N-[(1R)-1-(5-{5-chloro-4-fluoro-2-[(methylamino)methyl]phenyl}thiophen-2-yl)ethyl]-1-(2-fluoropyridin-3-yl)-6-oxo-1,6-dihydropyridazine-3-carboxamide]
C[C@@H](NC(=O)c1ccc(=O)n(-c2cccc(S(C)(=O)=O)c2)c1)c1cc(N)cc(C(F)(F)F)c1 [Example 167, N-[(1R)-1-[3-amino-5-(trifluoromethyl)phenyl]ethyl]-1-(3-methylsulfonylphenyl)-6-oxo-pyridine-3-carboxamide]
COc1ccc(-n2cc(C(=O)N[C@H](C)c3cc(N)cc(C(F)(F)F)c3)ccc2=O)c(F)c1 [Example 180, N-[(1R)-1-[3-amino-5-(trifluoromethyl)phenyl]ethyl]-1-(2-fluoro-4-methoxy-phenyl)-6-oxo-pyridine-3-carboxamide]
C[C@@H](NC(=O)c1ccc(=O)n(-c2cccc(C(=O)N(C)C)c2F)n1)c1cccc(C(F)(F)CO)c1F [Example 353, N-[(1R)-1-[3-(1,1-difluoro-2-hydroxy-ethyl)-2-fluoro-phenyl]ethyl]-1-[3-(dimethylcarbamoyl)-2-fluoro-phenyl]-6-oxo-pyridazine-3-carboxamide]
CNCc1ccc(Cl)cc1-c1ccc([C@@H](C)NC(=O)c2ccc(=O)n(-c3cnn(CCOC)c3)n2)s1 [Example 406]
CNCc1sccc1-c1cccc([C@@H](C)NC(=O)c2ccc(=O)n(-c3ccccc3F)n2)c1 [Example 291, 1-(2-fluorophenyl)-N-[(1R)-1-[3-[2-(methylaminomethyl)-3-thienyl]phenyl]ethyl]-6-oxo-pyridazine-3-carboxamide]
CNCc1ccccc1-c1ccc([C@@H](C)NC(=O)c2nn(-c3ccccc3F)c(=O)c3cc[nH]c23)s1 [Example 268, 5-(2-fluorophenyl)-N-[(1R)-1-[5-[2-(methylaminomethyl)phenyl]-2-thienyl]ethyl]-4-oxo-1H-pyrrolo[2,3-d]pyridazine-7-carboxamide]
